Counter-ions that a name gives are not always drawn.
How the values were obtained:
Microsomal ATP13A2 = biological target: T1, Microsomal ATP13A2 (Homo sapiens, UniProt Q9NQ11); assay: ATPase assay (ADP-Glo Max), solubilized microsomes of SH-SY5Y cells overexpressing ATP13A2 WT; assay type: biochemical; details: for ATPase activity of ATP13A2 WT, screen for candidate substrates: 100 nM CaCl2, MnCl2, ZnCl2 or FeCl3, 100 µM SPD or SPM; for ATPase activity of ATP13A2, dose-response: indicated doses, microsomes 5 µg
T1 construct: expressed in transfected cells; host or cells: SH-SY5Y human neuroblastoma cells, lentiviral transduction; microsomes solubilised with DDM
T1 sequence (Q9NQ11 1-1175 isoform Q9NQ11-3): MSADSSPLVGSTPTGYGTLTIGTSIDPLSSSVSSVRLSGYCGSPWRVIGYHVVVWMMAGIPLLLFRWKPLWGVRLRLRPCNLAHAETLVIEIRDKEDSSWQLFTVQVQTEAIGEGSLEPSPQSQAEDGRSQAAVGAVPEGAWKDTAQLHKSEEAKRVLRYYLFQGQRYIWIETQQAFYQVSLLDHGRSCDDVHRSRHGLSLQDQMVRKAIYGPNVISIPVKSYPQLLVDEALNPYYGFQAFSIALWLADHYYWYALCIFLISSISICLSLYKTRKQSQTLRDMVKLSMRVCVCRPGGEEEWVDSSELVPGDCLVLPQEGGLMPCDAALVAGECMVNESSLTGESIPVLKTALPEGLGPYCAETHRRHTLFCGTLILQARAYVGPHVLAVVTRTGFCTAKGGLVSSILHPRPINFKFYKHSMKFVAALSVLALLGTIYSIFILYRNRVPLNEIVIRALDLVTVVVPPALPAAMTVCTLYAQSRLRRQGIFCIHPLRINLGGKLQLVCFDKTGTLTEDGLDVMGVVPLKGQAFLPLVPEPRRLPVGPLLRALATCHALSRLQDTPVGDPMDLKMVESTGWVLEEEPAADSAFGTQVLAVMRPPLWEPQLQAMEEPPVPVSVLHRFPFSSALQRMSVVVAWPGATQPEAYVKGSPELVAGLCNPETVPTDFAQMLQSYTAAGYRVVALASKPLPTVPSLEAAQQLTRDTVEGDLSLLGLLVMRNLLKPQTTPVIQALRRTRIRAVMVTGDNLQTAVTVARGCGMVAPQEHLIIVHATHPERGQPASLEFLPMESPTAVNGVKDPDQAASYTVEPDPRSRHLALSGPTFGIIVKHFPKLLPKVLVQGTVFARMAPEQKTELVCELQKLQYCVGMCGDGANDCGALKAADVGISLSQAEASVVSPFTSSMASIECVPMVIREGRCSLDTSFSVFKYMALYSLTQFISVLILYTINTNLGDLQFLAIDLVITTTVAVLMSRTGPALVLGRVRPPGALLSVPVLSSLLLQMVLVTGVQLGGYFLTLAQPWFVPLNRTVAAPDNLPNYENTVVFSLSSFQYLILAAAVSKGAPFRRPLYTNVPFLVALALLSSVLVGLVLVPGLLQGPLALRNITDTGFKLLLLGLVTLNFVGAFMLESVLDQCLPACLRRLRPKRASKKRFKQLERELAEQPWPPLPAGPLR
Method: Membrane fractionation - Transduced SH-SY5Y cells were seeded in […] at a density of 6 x 10^6 cells per plate. 24 h later, the cells were harvested following trypsinization and brief centrifugation (300 x g, 5 min). Subcellular fractionation was performed by differential centrifugation. The microsomal protein concentration was measured using the bicinchoninic acid assay (Thermo Fischer Scientific, Pierce) according to the manufacturer's instructions.
ATPase assay - The ATPase activity of ATP13A2 was assessed using a commercially available luminescence assay (ADP-Glo Max assay, Promega) that monitors the production of ADP via luciferase activity. The reactions were performed for 30 min (37°C) in a final volume of 25 µl. […] The assay was started by the addition of 5 mM ATP and was terminated by adding 25 µl of ADP-Glo Reagent. The 96-well plate was then incubated for 40 min at room temperature, followed by the addition of 50 µl of ADP-Glo Max Detection Reagent. After 40 min, luminescence was detected using a FlexStation 3.0 system (Molecular Devices). Dose-response curves and n/Km/Vmax values were calculated using GraphPad Prism Software (GraphPad Software Inc.).

Purified ATP13A2 = biological target: T2, Purified ATP13A2 (Homo sapiens, UniProt Q9NQ11); assay: ATPase assay (ADP-Glo Max), purified ATP13A2 from yeast expression system; assay type: biochemical; set-up: we obtained >95% pure, full length and solubilized ATP13A2; biotin acceptor domain (BAD) tag behind a thrombin cleavage site (C, cleaved yes); made in house; host or cells: S. cerevisiae W303-1B/Gal4-ΔPep4, pYeDP60 vector; details: for lipid concentration of maximal effect on ATPase activity / ATP13A2 activity, effect of regulatory lipids: purified ATP13A2; for lipid concentration of maximal effect on ATPase activity: 2 mM SPM; for ATP13A2 activity, effect of regulatory lipids: only in the presence of SPM
T2 sequence (Q9NQ11 1-1175 isoform Q9NQ11-3): T1 sequence (Q9NQ11 1-1175 isoform Q9NQ11-3)
Method: ATPase assay - The ATPase activity of ATP13A2 was assessed using a commercially available luminescence assay (ADP-Glo Max assay, Promega) that monitors the production of ADP via luciferase activity. The reactions were performed for 30 min (37°C) in a final volume of 25 µl. The assay reaction mixture contained 50 mM MOPS-KOH (pH 7), 100 mM KCI, 11 mM MgCl2, 1 mM DTT, 195 µM DDM, various concentrations of the indicated compound, and either microsomes (5 µg) harvested from SH-SY5Y cells overexpressing ATP13A2 (WT or mutants) or purified ATP13A2 (0.5 µg). When purified ATP13A2 was used, we included 125 µM PA, 125 µM PI(3,5)P2 and 19.5 µM DDM in the reaction buffer. The assay was started by the addition of 5 mM ATP and was terminated by adding 25 µl of ADP-Glo Reagent. The 96-well plate was then incubated for 40 min at room temperature, followed by the addition of 50 µl of ADP-Glo Max Detection Reagent. After 40 min, luminescence was detected using a FlexStation 3.0 system (Molecular Devices). Dose-response curves and n/Km/Vmax values were calculated using GraphPad Prism Software (GraphPad Software Inc.).
Transformation and overexpression of ATP13A2 in yeast - The S. cerevisiae W303-1B/Gal4-ΔPep4 strain (leu2-3, his3-11,15, trp1-1::TRP1-GAL10-GAL4, ura3-1, ade2-1, canr, cir^+, ΔPep4 MAT; a kind gift from Rosa Lopez Marques) was transformed according to the lithium acetate/single-stranded carrier DNA/polyethylene glycol method [Gietz, R. D. & Woods, R. A. Methods Enzymol 350, 87-96 (2002)], with the pYeDP60 vector containing a yeast codon optimized version of human ATP13A2 variant 2 (WT or the catalytically dead E343A mutant) followed by a thrombin cleavage site and a C-terminal BAD tag [Azouaoui, H. et al. PLoS One 9, e112176, (2014); Jidenko, M. et al.Protein Expr Purif 48, 32-42, (2006)]. The transformation mixture was grown for 48 h at 30°C on minimal medium agar plates lacking uracil (0.54% yeast nitrogen base without amino acids, 0.12% yeast drop-out mix without Ura, 2% glucose, and 2% agar) to select yeast colonies that acquired the plasmid. These colonies were then cultured in 20 ml of MM-Ura medium (0.67% yeast nitrogen base without amino acids, 0.19% yeast drop-out mix without Ura, and 2% glucose) and grown for 24 h at 28°C and 200 rpm. The MM-Ura yeast pre-culture was used to inoculate 100 ml of MM-Ura medium to a final OD600 of 0.2, followed by a 12 h incubation period (28°C and 200 rpm). The second pre-culture was inoculated into 4.5 l of YPGE2X medium (2% yeast extract, 2% bactopeptone, 1% glucose, and 2.7% ethanol) to a final OD600 of 0.05 and grown for 36 h (28°C and 175 rpm). ATP13A2-BAD expression was induced with 2% galactose, followed by a second galactose induction 12 h later. After another 12 h, the pellet was collected (1,000 x g; 10 min; 4°C).
Yeast membrane preparation - Yeast cells were broken with glass beads using a BeadBeater (BioSpec products). The lysis buffer contained 50 mM Tris-HCI (pH 7.5), 1 mM EDTA, 0.6 M sorbitol, 1 mM phenylmethylsulfonyl fluoride and SigmaFast protease inhibitor. To remove cell debris and nuclei, the crude extract was centrifuged at 2,000 x g for 20 min (4°C). The supernatant (S1) was centrifuged at 20,000 x g for 20 min (4°C) to pellet the heavy membrane fraction (P2), and the resulting supernatant (S2) was further centrifuged at 200,000 x g for 1 h (4°C). The resulting pellet (i.e., the light membrane fraction, P3) was resuspended in 20 mM HEPES-Tris (pH 7.4), 0.3 M sucrose and 0.1 mM CaCl2. The total protein concentration was determined using a Bradford assay (B6916, Sigma-Aldrich).
ATP13A2-BAD purification - The method used to purify ATP13A2 was based on the purification of overexpressed Drs2p from yeast membranes. Yeast P3 membranes were diluted to 5 mg of total protein/ml in SSR buffer (50 mM MOPS-KOH (pH 7), 100 mM KCI, 20% glycerol, 5 mM MgCl2, 1 mM DTT, and SigmaFast protease inhibitor cocktail) and solubilized using DDM, with a detergent to protein ratio of 1:1.

SH-SY5Y cells = assay: MUH cytotoxicity assay; assay type: cell-based, human; details: increasing concentrations, 24 h
Method: MUH cytotoxicity assay - SH-SY5Y cells were seeded in 96-well plates (1 X 10^4 cells per well) and allowed to adhere overnight. The cells were subsequently treated with increasing doses of the indicated compounds for 24-48 h. Following exposure, the cells were washed with PBS and stained with 300 µg/ml MUH (prepared in DMSO, dissolved in PBS) for 30 min at 37°C.

| Compound | ATPase activity of ATP13A2 WT, screen for candidate substrates (Microsomal ATP13A2) | ATPase activity of ATP13A2, dose-response (Microsomal ATP13A2) | also measured |
| --- | --- | --- | --- |
| [Ca+2].[Cl-].[Cl-] [CaCl2] | had no effect |  |  |
| [Cl][Fe]([Cl])[Cl] [FeCl3] | did not increase ATP13A2 activity |  |  |
| [Cl][Mn][Cl] [MnCl2] | did not increase ATP13A2 activity |  |  |
| CC(=O)NCCCNCCCCNCCCN [N1-acetylspermine, N^1-acetylspermine trihydrochloride] |  | stimulate ATPase activity in a concentration-dependent manner | Vmax ± SEM (Microsomal ATP13A2; Microsomal ATP13A2): 98 ± 5 nmol ADP/mg/min |
| CCCCCCCC/C=C\CCCCCCCC(=O)OC[C@H](COP(=O)(O)O)OC(=O)CCCCCCC/C=C\CCCCCCCC [PA, 1,2-dioleoyl-sn-glycero-3-phosphate (sodium salt)] |  |  | lipid concentration of maximal effect on ATPase activity (Purified ATP13A2): 125 µM; ATP13A2 activity, effect of regulatory lipids (Purified ATP13A2): strongly stimulated |
| CCCCCCCC/C=C\CCCCCCCC(=O)OC[C@H](COP(=O)(O)O[C@@H]1[C@H](O)[C@H](OP(=O)(O)O)[C@@H](O)[C@H](OP(=O)(O)O)[C@H]1O)OC(=O)CCCCCCC/C=C\CCCCCCCC [PI(3,5)P2, 1,2-dioleoyl-sn-glycero-3-phospho-(1'-myo-inositol-3',5'-bisphosphate) (ammonium salt)] |  |  | lipid concentration of maximal effect on ATPase activity (Purified ATP13A2): 125 µM; ATP13A2 activity, effect of regulatory lipids (Purified ATP13A2): strongly stimulated |
| [Cl-].[Cl-].[Zn+2] [ZnCl2] | did not increase ATP13A2 activity |  |  |
| N=C(N)NCCCCN.O=S(=O)(O)O [agmatine, agmatine sulfate salt] |  | did not induce ATP13A2 activity |  |
| NCCCCCN [cadaverine] |  | did not induce ATP13A2 activity |  |
| Cl.NCCc1ccc(O)c(O)c1 [dopamine, dopamine hydrochloride] |  | did not induce ATP13A2 activity |  |
| NCCc1c[nH]cn1 [histamine] |  | did not induce ATP13A2 activity |  |
| [Na+].[Na+].[Na+].[O]=[V]([O-])([O-])[O-] [orthovanadate, sodium orthovanadate] |  |  | SPM-induced ATPase activity, inhibition (Purified ATP13A2; 1 mM SPM, 0.25 mM orthovanadate, 125 µM PA/PI(3,5)P2): blocked |
| Cl.Cl.NCCCCN [putrescine, putrescine dihydrochloride] |  | did not induce ATP13A2 activity | viability of control cells (SH-SY5Y cells): not cytotoxic |

Reference: patent EP3839043A1, “SCREENING METHODS FOR COMPOUNDS MODULATING POLYAMINE TRANSPORT” (Katholieke Universiteit Leuven, priority 2019, dated 2021)
